The record followed here is ChEMBL document CHEMBL1201862, “PubChem BioAssay data set” (2004).

The structures appear in SMILES notation. The source made the active and inactive calls.

For orientation: Ki means a dissociation constant, usually derived from enzyme kinetics or from competition with a known ligand. Usually IC50 stands for the midpoint of a concentration-inhibition curve.

In assay [1] the target is cAMP-dependent protein kinase catalytic subunit PRKX (Homo sapiens, UniProt P51817). In kind it is functional.
Assay [2] concerns the target Leukocyte tyrosine kinase receptor (Homo sapiens, UniProt P29376). The experiment in a line: Navigating the Kinome. Panel member name: LTK. Type of assay: functional.
Assay [3] deals with Vascular endothelial growth factor receptor 2 (Homo sapiens, UniProt P35968). In kind it is functional.
For assay [4], the target named is Leucine-rich repeat serine/threonine-protein kinase 2 (Homo sapiens, UniProt Q5S007). Type of assay: functional.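 Also: value from a broad kinome-wide panel profiling study in which LRRK2 was one of the kinases tested.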
Leucine-rich repeat serine/threonine-protein kinase 2, sequence (Q5S007 whole entry): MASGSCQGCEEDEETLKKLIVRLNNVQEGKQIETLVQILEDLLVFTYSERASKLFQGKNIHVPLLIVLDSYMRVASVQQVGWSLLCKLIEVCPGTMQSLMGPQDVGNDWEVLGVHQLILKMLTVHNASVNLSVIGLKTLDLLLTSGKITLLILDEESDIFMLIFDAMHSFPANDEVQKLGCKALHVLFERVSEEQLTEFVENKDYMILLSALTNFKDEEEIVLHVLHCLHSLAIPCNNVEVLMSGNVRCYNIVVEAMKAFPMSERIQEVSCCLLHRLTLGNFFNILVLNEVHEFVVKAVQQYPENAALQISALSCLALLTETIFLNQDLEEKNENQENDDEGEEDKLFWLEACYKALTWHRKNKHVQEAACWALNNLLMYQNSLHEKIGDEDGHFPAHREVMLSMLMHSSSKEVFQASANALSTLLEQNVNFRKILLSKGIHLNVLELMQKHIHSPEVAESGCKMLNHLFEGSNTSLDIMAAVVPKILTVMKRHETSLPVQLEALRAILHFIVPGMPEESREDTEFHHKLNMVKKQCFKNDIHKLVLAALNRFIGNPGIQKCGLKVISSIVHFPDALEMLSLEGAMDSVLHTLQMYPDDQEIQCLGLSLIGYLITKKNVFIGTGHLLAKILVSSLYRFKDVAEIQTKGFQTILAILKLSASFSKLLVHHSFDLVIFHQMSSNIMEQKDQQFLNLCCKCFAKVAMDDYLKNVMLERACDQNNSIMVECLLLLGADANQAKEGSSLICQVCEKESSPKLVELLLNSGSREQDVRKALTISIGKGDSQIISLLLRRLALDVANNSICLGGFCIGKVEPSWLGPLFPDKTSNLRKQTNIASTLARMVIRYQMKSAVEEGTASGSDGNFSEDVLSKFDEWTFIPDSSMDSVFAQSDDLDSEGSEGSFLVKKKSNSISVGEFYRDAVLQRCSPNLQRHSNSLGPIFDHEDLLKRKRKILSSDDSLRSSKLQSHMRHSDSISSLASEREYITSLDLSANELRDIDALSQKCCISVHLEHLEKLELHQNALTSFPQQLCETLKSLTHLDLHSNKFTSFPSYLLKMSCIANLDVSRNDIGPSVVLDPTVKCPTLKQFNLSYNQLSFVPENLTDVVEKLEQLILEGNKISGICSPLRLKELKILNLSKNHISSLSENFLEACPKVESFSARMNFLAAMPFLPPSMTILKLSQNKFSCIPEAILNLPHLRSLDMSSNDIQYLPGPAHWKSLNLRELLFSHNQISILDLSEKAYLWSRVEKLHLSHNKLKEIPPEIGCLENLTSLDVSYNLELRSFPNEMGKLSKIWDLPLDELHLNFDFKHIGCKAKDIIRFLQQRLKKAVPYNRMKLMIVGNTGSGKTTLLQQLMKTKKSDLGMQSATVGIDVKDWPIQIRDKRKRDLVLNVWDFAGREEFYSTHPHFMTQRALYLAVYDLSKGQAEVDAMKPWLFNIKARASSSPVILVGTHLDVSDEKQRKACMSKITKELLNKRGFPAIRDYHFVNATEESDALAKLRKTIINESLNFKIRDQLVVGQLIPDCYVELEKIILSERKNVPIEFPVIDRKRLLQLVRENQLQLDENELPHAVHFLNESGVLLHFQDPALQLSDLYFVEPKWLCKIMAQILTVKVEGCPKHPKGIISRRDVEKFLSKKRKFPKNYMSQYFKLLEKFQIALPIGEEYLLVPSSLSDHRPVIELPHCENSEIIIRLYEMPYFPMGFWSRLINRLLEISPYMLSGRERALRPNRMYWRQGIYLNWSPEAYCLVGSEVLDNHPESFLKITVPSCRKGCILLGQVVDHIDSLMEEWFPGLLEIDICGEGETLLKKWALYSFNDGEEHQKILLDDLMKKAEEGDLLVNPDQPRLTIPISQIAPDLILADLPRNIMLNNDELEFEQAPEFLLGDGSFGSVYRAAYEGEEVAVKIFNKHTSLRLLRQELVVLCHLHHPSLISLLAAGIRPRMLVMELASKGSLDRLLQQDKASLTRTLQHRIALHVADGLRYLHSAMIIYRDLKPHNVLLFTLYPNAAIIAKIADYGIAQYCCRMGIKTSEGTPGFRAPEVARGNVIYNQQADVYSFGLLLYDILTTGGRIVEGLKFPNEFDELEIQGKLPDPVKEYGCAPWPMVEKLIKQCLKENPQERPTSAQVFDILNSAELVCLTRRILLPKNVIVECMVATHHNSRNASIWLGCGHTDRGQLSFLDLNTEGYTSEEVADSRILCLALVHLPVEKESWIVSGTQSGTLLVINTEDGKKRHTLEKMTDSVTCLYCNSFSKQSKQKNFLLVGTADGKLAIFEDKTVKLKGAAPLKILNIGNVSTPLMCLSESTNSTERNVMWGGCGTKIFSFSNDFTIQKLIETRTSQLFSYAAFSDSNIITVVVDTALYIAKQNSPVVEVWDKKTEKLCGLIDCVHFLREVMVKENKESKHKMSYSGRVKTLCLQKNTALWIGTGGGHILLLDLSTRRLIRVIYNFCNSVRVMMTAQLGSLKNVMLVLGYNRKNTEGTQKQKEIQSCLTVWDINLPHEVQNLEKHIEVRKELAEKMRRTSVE
Assay [5] concerns the target Tyrosine-protein kinase JAK2 (Homo sapiens, UniProt O60674). Type of assay: functional.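 Also: JAK2 tested as one member of a kinase panel.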
Assay [6] deals with Melanin-concentrating hormone receptor 1 (Homo sapiens, UniProt Q99705). The assay can be described thus: Late-stage fluorescence-based counterscreen for antagonists of the G-protein coupled receptor 7 (GPR7): cell-based dose response assay to identify antagonists of the melanin-concentrating hormone receptor 1 (MCHR1) Set 6. Type of assay: functional. In general terms: Counterscreens check selectivity or assay interference.

The target of assay [7] is T1, Neuropeptides B/W receptor type 1 (Homo sapiens, UniProt P48145).
T1 sequence (P48145 whole entry): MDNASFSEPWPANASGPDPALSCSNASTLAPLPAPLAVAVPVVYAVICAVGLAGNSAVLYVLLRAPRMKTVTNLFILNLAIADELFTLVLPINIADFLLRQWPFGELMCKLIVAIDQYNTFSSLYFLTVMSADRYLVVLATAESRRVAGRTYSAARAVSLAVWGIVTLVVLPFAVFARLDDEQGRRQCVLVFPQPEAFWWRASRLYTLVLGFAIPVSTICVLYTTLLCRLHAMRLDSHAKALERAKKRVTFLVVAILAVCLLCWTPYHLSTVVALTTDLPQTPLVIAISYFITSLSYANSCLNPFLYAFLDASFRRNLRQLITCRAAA
The assay can be described thus: human NPBW1 receptor blockade, IC50 – cell-based, fluorescence, dose response, set 6, late-stage follow-up (AID 588583). In kind it is functional.

In assay [8] the target is Mitogen-activated protein kinase kinase kinase kinase 4 (Homo sapiens, UniProt O95819). In kind it is functional.
For assay [9], the target named is Glycogen synthase kinase-3 beta (Homo sapiens, UniProt P49841). In kind it is functional.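 Also: value comes from a broad kinome profiling panel, with GSK3B as the panel member.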
The target of assay [10] is Serine/threonine-protein kinase pim-1 (Homo sapiens, UniProt P11309). In kind it is functional.
Assay [11] has as its target Cell division cycle 7-related protein kinase (Homo sapiens, UniProt O00311). In kind it is functional.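 Also: value obtained from a kinome-wide kinase panel.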
In assay [12] the target is Dual specificity protein kinase CLK4 (Homo sapiens, UniProt Q9HAZ1). Type of assay: functional.
Dual specificity protein kinase CLK4, sequence (Q9HAZ1 whole entry): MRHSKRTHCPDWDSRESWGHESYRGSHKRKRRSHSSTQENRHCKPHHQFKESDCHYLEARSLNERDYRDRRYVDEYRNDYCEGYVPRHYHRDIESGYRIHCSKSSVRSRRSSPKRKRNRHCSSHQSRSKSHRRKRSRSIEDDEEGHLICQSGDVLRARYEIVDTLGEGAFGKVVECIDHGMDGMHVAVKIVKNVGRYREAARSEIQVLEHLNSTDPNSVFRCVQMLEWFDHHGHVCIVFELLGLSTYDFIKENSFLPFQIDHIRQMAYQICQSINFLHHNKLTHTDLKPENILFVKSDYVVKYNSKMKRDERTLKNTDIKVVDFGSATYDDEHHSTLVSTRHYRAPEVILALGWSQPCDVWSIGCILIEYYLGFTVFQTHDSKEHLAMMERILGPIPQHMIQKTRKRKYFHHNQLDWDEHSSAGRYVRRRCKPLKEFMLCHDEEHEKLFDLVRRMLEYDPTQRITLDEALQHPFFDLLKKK
Assay [13] deals with cAMP-dependent protein kinase catalytic subunit alpha (Homo sapiens, UniProt P17612). Type of assay: functional.
Assay [14] addresses Interleukin-1 receptor-associated kinase 4 (Homo sapiens, UniProt Q9NWZ3). In kind it is functional.
Assay [15] deals with Homeodomain-interacting protein kinase 2 (Homo sapiens, UniProt Q9H2X6). Type of assay: functional.
Assay [16] is described as follows: cAMP pathway inhibition in counterscreen cell line – TR-FRET cAMP detection, counter-screen for MC4R biased antagonist project, dose response (AID 602305).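 Also: U2OS cells stimulated with forskolin near its EC80 as the cAMP inducer; potency is for inhibition of forskolin-stimulated cAMP signaling.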 Type of assay: functional, cell-based.
Assay [17] deals with Melanocortin receptor 4 (Homo sapiens, UniProt P32245). The experiment in a line: inhibitors of MC4R cAMP signaling – cell-based, TR-FRET, biased antagonists, dose response (AID 602298).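 Also: antagonist potency against agonist-stimulated cAMP production.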 In kind it is functional. Background: Time-resolved FRET reads energy transfer from a long-lived donor to a nearby acceptor.
Assay [18] concerns the target Serine/threonine-protein kinase Chk1 (Homo sapiens, UniProt O14757). In kind it is functional.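 Also: measured as one member of a kinome-wide kinase profiling panel.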
In assay [19] the target is LIM domain kinase 1 (Homo sapiens, UniProt P53667). The experiment in a line: Navigating the Kinome. Panel member name: LIMK1. Type of assay: functional.
Assay [20] deals with T2, Sentrin-specific protease 7 (Homo sapiens, UniProt Q9BQF6).
T2 sequence (Q9BQF6 whole entry): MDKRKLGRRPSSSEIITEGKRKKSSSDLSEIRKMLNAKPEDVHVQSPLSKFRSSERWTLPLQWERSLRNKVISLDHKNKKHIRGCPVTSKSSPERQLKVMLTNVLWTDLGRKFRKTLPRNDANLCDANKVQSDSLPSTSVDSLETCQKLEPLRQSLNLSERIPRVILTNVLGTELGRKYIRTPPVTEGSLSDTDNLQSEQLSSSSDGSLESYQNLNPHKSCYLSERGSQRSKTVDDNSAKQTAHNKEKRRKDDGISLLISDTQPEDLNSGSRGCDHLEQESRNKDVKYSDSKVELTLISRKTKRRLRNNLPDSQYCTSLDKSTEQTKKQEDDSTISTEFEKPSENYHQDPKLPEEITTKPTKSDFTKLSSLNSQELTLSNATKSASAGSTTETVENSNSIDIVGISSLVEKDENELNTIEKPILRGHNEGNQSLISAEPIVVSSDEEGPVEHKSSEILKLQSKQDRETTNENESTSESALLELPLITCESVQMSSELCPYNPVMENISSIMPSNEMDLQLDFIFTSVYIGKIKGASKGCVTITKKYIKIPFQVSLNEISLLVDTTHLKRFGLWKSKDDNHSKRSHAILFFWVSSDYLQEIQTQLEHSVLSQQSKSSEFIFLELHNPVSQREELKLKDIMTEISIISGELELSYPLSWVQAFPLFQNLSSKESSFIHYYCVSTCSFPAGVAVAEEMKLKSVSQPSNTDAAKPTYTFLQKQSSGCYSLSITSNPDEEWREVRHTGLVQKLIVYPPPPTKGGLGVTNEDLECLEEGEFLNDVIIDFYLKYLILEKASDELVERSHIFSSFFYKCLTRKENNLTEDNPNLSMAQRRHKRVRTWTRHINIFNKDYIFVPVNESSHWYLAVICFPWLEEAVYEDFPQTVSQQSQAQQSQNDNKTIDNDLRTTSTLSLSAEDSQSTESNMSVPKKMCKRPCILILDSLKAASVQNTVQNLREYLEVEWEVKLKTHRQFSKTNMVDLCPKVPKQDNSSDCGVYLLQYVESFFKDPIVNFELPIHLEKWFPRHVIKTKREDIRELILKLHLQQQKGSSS
The assay can be described thus: inhibition of human SENP7 cleavage activity – biochemical, luminescence, SAR follow-up (AID 504497). In kind it is functional.

The target of assay [21] is T3, Caspase-3 (Homo sapiens, UniProt P42574).
T3 sequence (P42574 whole entry): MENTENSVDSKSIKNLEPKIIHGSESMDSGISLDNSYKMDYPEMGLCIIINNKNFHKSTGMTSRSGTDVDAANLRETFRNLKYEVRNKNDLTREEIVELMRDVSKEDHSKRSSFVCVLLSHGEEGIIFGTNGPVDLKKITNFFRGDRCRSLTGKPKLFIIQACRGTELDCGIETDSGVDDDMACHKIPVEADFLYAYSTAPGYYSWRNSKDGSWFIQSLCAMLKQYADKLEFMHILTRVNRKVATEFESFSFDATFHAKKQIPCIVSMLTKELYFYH
The assay can be described thus: SAR Analysis of small molecule inhibitors of Sentrin-specific proteases (SENPs) using a Caspase-3 Selectivity assay. [Related pubchem assays (depositor defined):AID2540, AID2599, AID434973, AID489001]. In kind it is functional.

The target of assay [22] is T4, Sentrin-specific protease 6 (Homo sapiens, UniProt Q9GZR1).
T4 sequence (Q9GZR1 whole entry): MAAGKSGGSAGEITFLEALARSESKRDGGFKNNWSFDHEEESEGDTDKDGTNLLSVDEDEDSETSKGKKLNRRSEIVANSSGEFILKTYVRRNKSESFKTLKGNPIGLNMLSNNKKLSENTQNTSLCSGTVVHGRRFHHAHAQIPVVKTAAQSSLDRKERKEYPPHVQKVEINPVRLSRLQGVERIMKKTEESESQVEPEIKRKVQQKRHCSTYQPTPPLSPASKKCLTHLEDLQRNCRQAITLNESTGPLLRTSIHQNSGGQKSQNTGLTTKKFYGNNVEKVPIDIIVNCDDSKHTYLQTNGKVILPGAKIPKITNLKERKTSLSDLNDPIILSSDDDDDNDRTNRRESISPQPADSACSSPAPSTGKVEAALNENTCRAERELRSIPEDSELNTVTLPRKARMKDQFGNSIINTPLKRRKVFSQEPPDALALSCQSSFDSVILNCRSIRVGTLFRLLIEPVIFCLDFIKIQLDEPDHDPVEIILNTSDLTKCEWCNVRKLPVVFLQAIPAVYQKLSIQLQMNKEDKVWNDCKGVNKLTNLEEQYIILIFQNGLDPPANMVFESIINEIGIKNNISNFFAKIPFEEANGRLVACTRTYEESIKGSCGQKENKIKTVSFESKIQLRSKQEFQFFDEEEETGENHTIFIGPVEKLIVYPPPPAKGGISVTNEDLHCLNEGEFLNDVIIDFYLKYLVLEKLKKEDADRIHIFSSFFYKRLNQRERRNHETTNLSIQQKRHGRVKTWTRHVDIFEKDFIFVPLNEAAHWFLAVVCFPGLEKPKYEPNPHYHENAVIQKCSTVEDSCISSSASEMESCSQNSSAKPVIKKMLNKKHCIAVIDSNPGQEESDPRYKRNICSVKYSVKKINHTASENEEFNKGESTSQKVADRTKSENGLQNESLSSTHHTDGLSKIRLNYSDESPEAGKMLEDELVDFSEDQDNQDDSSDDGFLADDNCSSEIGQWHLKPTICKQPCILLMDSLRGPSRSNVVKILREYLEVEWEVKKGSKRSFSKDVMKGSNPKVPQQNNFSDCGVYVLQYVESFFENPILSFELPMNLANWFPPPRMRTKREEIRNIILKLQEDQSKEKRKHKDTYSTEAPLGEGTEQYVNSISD
The experiment in a line: SAR Analysis of small molecule inhibitors of Sentrin-specific protease 6 (SENP6) using a Luminescent assay. [Related pubchem assays (depositor defined):AID2582, AID2599]. In kind it is functional.

Assay [23] deals with T5, Sentrin-specific protease 8 (Homo sapiens, UniProt Q96LD8).
T5 sequence (Q96LD8 whole entry): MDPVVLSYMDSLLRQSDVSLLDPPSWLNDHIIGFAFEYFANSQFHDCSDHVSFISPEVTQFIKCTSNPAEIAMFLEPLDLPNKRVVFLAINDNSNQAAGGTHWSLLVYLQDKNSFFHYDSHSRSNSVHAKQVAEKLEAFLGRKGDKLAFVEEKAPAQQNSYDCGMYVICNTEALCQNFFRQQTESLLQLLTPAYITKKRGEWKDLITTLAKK
The experiment in a line: inhibition of human SENP8 cleavage activity – biochemical, luminescence, SAR follow-up (AID 504501). Type of assay: functional.

Tyrosine-protein kinase JAK2, sequence (O60674 whole entry): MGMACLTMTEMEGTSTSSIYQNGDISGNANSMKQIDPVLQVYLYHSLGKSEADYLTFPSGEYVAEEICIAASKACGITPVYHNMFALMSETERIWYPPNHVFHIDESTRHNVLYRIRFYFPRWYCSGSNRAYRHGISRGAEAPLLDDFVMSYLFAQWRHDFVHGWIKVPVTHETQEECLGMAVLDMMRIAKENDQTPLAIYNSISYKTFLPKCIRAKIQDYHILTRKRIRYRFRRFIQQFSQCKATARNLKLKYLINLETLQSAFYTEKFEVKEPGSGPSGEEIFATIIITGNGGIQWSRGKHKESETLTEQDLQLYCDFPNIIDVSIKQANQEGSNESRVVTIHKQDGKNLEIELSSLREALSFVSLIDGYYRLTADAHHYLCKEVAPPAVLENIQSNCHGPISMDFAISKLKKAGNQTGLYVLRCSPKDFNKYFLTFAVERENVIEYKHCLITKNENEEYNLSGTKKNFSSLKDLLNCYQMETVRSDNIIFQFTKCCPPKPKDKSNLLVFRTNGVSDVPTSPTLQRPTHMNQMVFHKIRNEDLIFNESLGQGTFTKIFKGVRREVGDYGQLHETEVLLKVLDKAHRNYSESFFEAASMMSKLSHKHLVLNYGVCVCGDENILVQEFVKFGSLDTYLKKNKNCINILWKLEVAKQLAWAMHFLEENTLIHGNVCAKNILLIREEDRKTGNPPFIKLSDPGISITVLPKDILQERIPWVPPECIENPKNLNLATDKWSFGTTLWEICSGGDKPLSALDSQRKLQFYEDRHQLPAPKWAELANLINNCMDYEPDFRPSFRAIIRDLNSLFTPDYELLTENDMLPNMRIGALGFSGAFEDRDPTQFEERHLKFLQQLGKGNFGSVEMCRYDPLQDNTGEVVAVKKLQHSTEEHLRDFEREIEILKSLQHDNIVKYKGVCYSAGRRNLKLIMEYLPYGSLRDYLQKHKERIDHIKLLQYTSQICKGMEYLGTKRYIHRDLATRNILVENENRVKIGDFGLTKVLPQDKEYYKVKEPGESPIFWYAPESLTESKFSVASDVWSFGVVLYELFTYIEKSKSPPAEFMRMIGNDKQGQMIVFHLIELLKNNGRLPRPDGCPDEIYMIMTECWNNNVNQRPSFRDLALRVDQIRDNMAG
Serine/threonine-protein kinase Chk1, sequence (O14757 whole entry, the tested form may be a part): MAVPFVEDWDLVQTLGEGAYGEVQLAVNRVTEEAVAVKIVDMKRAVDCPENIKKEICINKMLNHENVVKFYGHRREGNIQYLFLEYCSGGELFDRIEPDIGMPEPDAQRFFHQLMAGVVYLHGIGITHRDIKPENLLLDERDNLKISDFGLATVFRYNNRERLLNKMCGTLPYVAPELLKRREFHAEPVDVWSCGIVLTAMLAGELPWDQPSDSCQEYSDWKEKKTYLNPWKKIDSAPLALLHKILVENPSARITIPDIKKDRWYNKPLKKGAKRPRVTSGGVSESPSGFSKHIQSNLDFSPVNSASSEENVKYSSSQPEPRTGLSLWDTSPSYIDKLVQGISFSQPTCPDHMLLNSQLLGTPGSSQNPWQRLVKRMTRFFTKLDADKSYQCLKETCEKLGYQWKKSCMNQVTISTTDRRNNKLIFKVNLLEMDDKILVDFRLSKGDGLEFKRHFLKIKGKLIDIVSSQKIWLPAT
Interleukin-1 receptor-associated kinase 4, sequence (Q9NWZ3 whole entry): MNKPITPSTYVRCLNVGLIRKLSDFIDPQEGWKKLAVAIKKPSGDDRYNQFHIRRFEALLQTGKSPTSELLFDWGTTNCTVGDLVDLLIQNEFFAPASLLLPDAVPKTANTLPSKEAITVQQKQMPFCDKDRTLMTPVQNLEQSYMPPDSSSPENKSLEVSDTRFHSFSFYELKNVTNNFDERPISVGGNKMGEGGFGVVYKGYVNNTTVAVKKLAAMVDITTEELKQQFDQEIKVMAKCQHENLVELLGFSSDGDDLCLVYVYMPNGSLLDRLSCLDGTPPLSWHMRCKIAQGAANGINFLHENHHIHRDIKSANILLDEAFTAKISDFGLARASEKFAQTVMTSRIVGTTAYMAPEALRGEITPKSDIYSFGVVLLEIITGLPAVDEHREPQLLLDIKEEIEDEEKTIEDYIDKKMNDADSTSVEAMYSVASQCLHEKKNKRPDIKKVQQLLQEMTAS

On to `CC(=O)c1c(C)c2cnc(Nc3ccc(N4CCNCC4)cn3)nc2n(C2CCCC2)c1=O` [PALBOCICLIB], for which the Ki in assay [1] is 2510 nM (active); in assay [2], > 2510 nM (inactive); in assay [3] it was > 2000 nM (inactive); in [4], 2510 nM (active); in assay [5], > 2510 nM (inactive).
Take `COc1ccc(-c2c(Br)cnn(Cc3cccc4ccccc34)c2=O)cc1`: the IC50 in [6] and in assay [7] was 974 nM (active) throughout.
With `CCCCNc1c(-c2ccc3[nH]ncc3c2)nc2ncccn12`, the Ki in assay [8] was 1580 nM (active); in [9], 15.8 nM (active); in [10], 501 nM (active); in assay [11], 10 nM (active); in [12] it was 3.98 nM (active); in assay [13] it was 1000 nM (active). In addition, the Ki was > 10000 nM (inactive) in [14] and 100 nM (active) in [15].
As to `CN1CCC(Oc2ccccc2Sc2ccc(C(F)(F)F)cc2)CC1`, the IC50 in [16] and in assay [17] was > 64600 nM (inactive) in each case.
Turning to `Clc1ccc2c(c1)NC1(CCCCC1)N2`, the Ki in assay [18] was 2510 nM (active); in assay [19], 2000 nM (active).
In the case of `Clc1ccc(/C=N/Nc2cc(N3CCOCC3)nc(N3CCOCC3)n2)c(Cl)c1`, the IC50 in assay [20], in [21], in [22] and in assay [23] was > 99000 nM (inactive) in each case.
